Consider 13 compounds from US5885986A, “Oxazolyl- and thiazolylimidazo-benzo- and thienodiazepines and their use as medicaments” (Hoffmann-La Roche Inc., priority 1994, dated 1999).

As usually defined, the IC50 is the concentration needed to halve the response being measured.

The nature of assay [1]: rotating rod test (sedative/muscle relaxant properties). The class given is in vivo, mice. The note with it: Mus musculus, iv, i.v., read-out: Rotating rod test, ED550. The protocol:
The sedative/muscle relaxant properties of the compounds of formula I in accordance with the invention can be determined, for example, in the rotating rod test. Mice weighing 19-21 g are used for this test. They have free access to feed and drinking water up to 1 h before the beginning of the test. They are brought into the test laboratory at least 30 min. before the test. In the rotating rod test the animals are placed on a horizontally arranged, smooth metal rod having a diameter of 3 cm, which is rotated at 2 revolutions per min. Initially, the animals are given the opportunity of familiarizing themselves with the test situation for 30 sec. Subsequently, those animals which succeed in remaining on the rod for at least 1 min. are selected. These animals are then given the test preparations intravenously in different dosages. At various points in time it is then determined whether the animals are able to remain on the rod for a minimum period (minimum period: 10 sec.; from 5 min. after administration: 1 min.). That dosage at which 50% of the animals are capable of remaining on the rod (ED50) is determined.

Assay [2] concerns the target central benzodiazepine receptors. Briefly: inhibition of the binding of tritiated flumazenil to the specific benzodiazepine receptors in the cortex of rats. The note with it: read-out: Affinity to benzodiazepine receptors IC50. Here is the method: The affinity of compounds of general formula I to the central benzodiazepine receptors has been established in vitro according to the methods described in Nature 294, 763-765 (1981) and J. Neurochemistry 37, 714-722 (1981). According to these methods, the inhibition of the binding of tritiated flumazenil to the specific benzodiazepine receptors in the cortex of rats by the respective test substances is determined. The IC50 ("50% inhibiting concentration") denotes that concentration of the respective test substance which brings about a 50 percent inhibition of the specific binding of tritiated flumazenil to the specific benzodiazepine receptors in the cortex of rats.

Setting [3] is: 15 s, 15 sec after administration.
Setting [4] is: 0.5 min, 30 sec after administration.
Setting [5] is: 1 min, 60 sec after administration.
The mark [6] stands for this setting: 2 min, 2 min after administration.
Setting [7] is: 5 min, 5 min after administration.
[8] abbreviates: 0.25 h, 15 min after administration.
Where [9] appears, read: 0.5 h, 30 min after administration.
Where [10] appears, read: 1 h, 60 min after administration.

Like-named read-outs stand apart in the source and are kept apart here. Bounds are passed on as bounds.

On to `CCCN(CCC)Cc1cnc(-c2ncn3c2CN(C)C(=O)c2c(Cl)cccc2-3)o1` [G, 7-chloro-3-(5-dipropylaminomethyl-oxazol-2-yl)-5-methyl-5,6-dihydro-4H-imidazo[1,5-a][1,4]benzodiazepin-6-one], for which the ED50 was 1 mg/kg in assay [1] (setting [3]); 1.2 mg/kg in assay [1] (setting [4]); 1.8 mg/kg in assay [1] (setting [5]); 2.1 mg/kg in assay [1] (setting [6]); 3 mg/kg in assay [1] (setting [7]); 3.4 mg/kg in assay [1] (setting [8]). In addition, the ED50 is 5.6 mg/kg in assay [1] (setting [9]) and over 10 mg/kg in assay [1] (setting [10]). Also, in assay [2], the half-inhibitory concentration (IC50) came out at 0.004 µM.
As to `CCCN(CCC)Cc1cnc(-c2ncn3c2CN(C)C(=O)c2sccc2-3)o1` [I, 3-(5-dipropylaminomethyl-oxazol-2-yl)-5-methyl-5,6-dihydro-4H-imidazo[1,5-a]thieno[2,3-f][1,4]diazepin-6-one], the ED50 in assay [1] (setting [3]) is 1.8 mg/kg; in assay [1] (setting [4]) it was 1.7 mg/kg; in assay [1] (setting [5]) it was 3.4 mg/kg; in assay [1] (setting [6]), 3.9 mg/kg; in assay [1] (setting [7]) it was 8.7 mg/kg; in assay [1] (setting [8]), over 10 mg/kg. Also, the ED50 in assay [1] (setting [9]) and in assay [1] (setting [10]) was over 10 mg/kg each time. The IC50 in assay [2] was determined as 0.017 µM.
Consider `CCCN(CCC)Cc1cnc(-c2ncn3c2CN(C)C(=O)c2ccccc2-3)o1` [F, 3-(5-dipropylaminomethyl-oxazol-2-yl)-5-methyl-5,6-dihydro-4H-imidazo[1,5-a][1,4]benzodiazepin-6-one], for which the ED50 in assay [1] (setting [3]) is 1.7 mg/kg; in assay [1] (setting [4]), 3.9 mg/kg; in assay [1] (setting [5]), 4.7 mg/kg; in assay [1] (setting [6]) it was at least 10 mg/kg; in assay [1] (setting [7]) it was at least 10 mg/kg; in assay [1] (setting [8]), over 10 mg/kg. The ED50 in assay [1] (setting [9]) and in assay [1] (setting [10]) was over 10 mg/kg each time. Moreover, in assay [2], the IC50 was 0.066 µM.
Turning to `CCCN(CCC)Cc1cnc(-c2ncn3c2[C@@H]2CCN2C(=O)c2c(Cl)cccc2-3)o1` [A, (S)-8-chloro-1-(5-dipropylaminomethyl-oxazol-2-yl)-12,12a-dihydro-9H,11H-azeto[2,1-c]imidazo[1,5-a][1,4]benzodiazepin-9-one], the ED50 was 0.3 mg/kg in assay [1] (setting [3]); 0.4 mg/kg in assay [1] (setting [4]); 0.6 mg/kg in assay [1] (setting [5]); 1.1 mg/kg in assay [1] (setting [6]); 1.8 mg/kg in assay [1] (setting [7]); over 10 mg/kg in assay [1] (setting [8]). The ED50 in assay [1] (setting [9]) and in assay [1] (setting [10]) was over 10 mg/kg in each case. The IC50 in assay [2] was 0.032 µM.
On to `CCCN(CCC)Cc1csc(-c2ncn3c2[C@@H]2CCCN2C(=O)c2c(Cl)cccc2-3)n1` [K, (S)-8-chloro-1-(4-dipropylaminomethyl-thiazol-2-yl)-11,12,13,13a-tetrahydro-9H-imidazo[1,5-a]pyrrolo[2,1-c][1,4]benzodiazepin-9-one], for which the ED50 in assay [1] (setting [3]) was 1.8 mg/kg; in assay [1] (setting [4]), 1.8 mg/kg; in assay [1] (setting [5]), 5.6 mg/kg; in assay [1] (setting [6]), 3.7 mg/kg; in assay [1] (setting [7]) it was 5.6 mg/kg; in assay [1] (setting [8]) it was at least 10 mg/kg. Further, the ED50 in assay [1] (setting [9]) is at least 10 mg/kg; in assay [1] (setting [10]) it was over 10 mg/kg. The IC50 in assay [2] was 0.015 µM.
Regarding `CCCN(CCC)Cc1csc(-c2ncn3c2[C@@H]2CCN2C(=O)c2c(Cl)cccc2-3)n1` [E, (S)-8-chloro-1-(4-dipropylaminomethyl-thiazol-2-yl)-12,12a-dihydro-9H,11H-azeto[2,1-c]imidazo[1,5-a][1,4]benzodiazepin-9-one], the ED50 was determined as 0.3 mg/kg in assay [1] (setting [3]); 0.3 mg/kg in assay [1] (setting [4]); 0.3 mg/kg in assay [1] (setting [5]); 0.9 mg/kg in assay [1] (setting [6]); 1 mg/kg in assay [1] (setting [7]); 3.2 mg/kg in assay [1] (setting [8]). In addition, the figures for the ED50 in assay [1] (setting [9]) and in assay [1] (setting [10]) were at least 10 mg/kg and over 10 mg/kg, respectively. In addition, the concentration for half-maximal inhibition (IC50) in assay [2] is 0.011 µM.
For `CCCN(CCC)Cc1csc(-c2ncn3c2CN(C)C(=O)c2c-3ccc(F)c2Cl)n1` [L, 7-chloro-3-(4-dipropylaminomethyl-thiazol-2-yl)-8-fluoro-5-methyl-5,6-dihydro-4H-imidazo[1,5-a][1,4]benzodiazepin-6-one], the ED50 in assay [1] (setting [3]) amounted to 1.1 mg/kg; in assay [1] (setting [4]) it was 1.1 mg/kg; in assay [1] (setting [5]), 1.1 mg/kg; in assay [1] (setting [6]), 2.8 mg/kg; in assay [1] (setting [7]), 4.7 mg/kg; in assay [1] (setting [8]), 5.7 mg/kg. For the same compound, the ED50 is at least 10 mg/kg in assay [1] (setting [9]) and over 10 mg/kg in assay [1] (setting [10]). Also, the IC50 in assay [2] was 0.016 µM.
For the compound `CCCCN(CCCC)Cc1cnc(-c2ncn3c2CN(C)C(=O)c2cc(F)ccc2-3)o1` [H, 3-(5-dibutylaminomethyl-oxazol-2-yl)-8-fluoro-5-methyl-5,6-dihydro-4H-imidazo[1,5-a][1,4]benzodiazepin-6-one], the ED50 in assay [1] (setting [3]) was 1.1 mg/kg; in assay [1] (setting [4]), 1.1 mg/kg; in assay [1] (setting [5]), 1.2 mg/kg; in assay [1] (setting [6]) it was 2.1 mg/kg; in assay [1] (setting [7]), 3.4 mg/kg; in assay [1] (setting [8]), at least 10 mg/kg. Besides, the ED50 in assay [1] (setting [9]) and in assay [1] (setting [10]) was over 10 mg/kg each time. The half-inhibitory concentration (IC50) in assay [2] came out at 0.035 µM.
Take `CCCN(CCC)Cc1cnc(-c2ncn3c2[C@@H]2CCN2C(=O)c2sccc2-3)o1` [D, (S)-1-(5-dipropylaminomethyl-oxazol-2-yl)-11,11a-dihydro-8H,10H-azeto[1,2-a]imidazo[5,1-c]thieno[3,2-e][1,4]diazepin-8-one]: the ED50 is 0.1 mg/kg in assay [1] (setting [3]); 0.2 mg/kg in assay [1] (setting [4]); 0.4 mg/kg in assay [1] (setting [5]); 0.5 mg/kg in assay [1] (setting [6]); 1.8 mg/kg in assay [1] (setting [7]); 3.6 mg/kg in assay [1] (setting [8]). Moreover, the ED50 in assay [1] (setting [9]) and in assay [1] (setting [10]) was over 10 mg/kg each time. Also, the 50% inhibitory concentration (IC50) in assay [2] amounted to 0.007 µM.
Consider `CCCN(CCC)Cc1cnc(-c2ncn3c2CN(C)C(=O)c2cc(F)ccc2-3)o1` [B, 3-(5-dipropylaminomethyl-oxazol-2-yl)-8-fluoro-5-methyl-5,6-dihydro-4H-imidazo[1,5-a][1,4]benzodiazepin-6-one], for which the ED50 was determined as 0.3 mg/kg in assay [1] (setting [3]); 0.5 mg/kg in assay [1] (setting [4]); 0.7 mg/kg in assay [1] (setting [5]); 1.6 mg/kg in assay [1] (setting [6]); 2.6 mg/kg in assay [1] (setting [7]); 4.9 mg/kg in assay [1] (setting [8]). Further, the ED50 in assay [1] (setting [9]) and in assay [1] (setting [10]) was over 10 mg/kg each time. In addition, in assay [2], the IC50 turned out to be 0.059 µM.
For the compound `CCCN(CCC)Cc1csc(-c2ncn3c2CN(C)C(=O)c2c(Cl)cccc2-3)n1` [J, 7-chloro-3-(4-dipropylaminomethyl-thiazol-2-yl)-5-methyl-5,6-dihydro-4H-imidazo[1,5-a][1,4]benzodiazepin-6-one], the ED50 in assay [1] (setting [3]) was 0.7 mg/kg; in assay [1] (setting [4]), 0.9 mg/kg; in assay [1] (setting [5]), 2.3 mg/kg; in assay [1] (setting [6]) it was at least 10 mg/kg; in assay [1] (setting [7]) it was at least 10 mg/kg; in assay [1] (setting [8]), over 10 mg/kg. The ED50 in assay [1] (setting [9]) and in assay [1] (setting [10]) was over 10 mg/kg each time. Further, the IC50 in assay [2] is 0.0052 µM.
`CCCN(CCC)Cc1coc(-c2ncn3c2CN(C)C(=O)c2c(Cl)cccc2-3)n1` [M, 7-chloro-3-(4-dipropylaminomethyl-oxazol-2-yl)-5-methyl-5,6-dihydro-4H-imidazo[1,5-a][1,4]benzodiazepin-6-one]: the ED50 worked out at 0.4 mg/kg in assay [1] (setting [3]); 1 mg/kg in assay [1] (setting [4]); 1.2 mg/kg in assay [1] (setting [5]); 3 mg/kg in assay [1] (setting [6]); 3.7 mg/kg in assay [1] (setting [7]); 8.8 mg/kg in assay [1] (setting [8]). Further, the values for the ED50 in assay [1] (setting [9]) and in assay [1] (setting [10]) were at least 10 mg/kg and over 10 mg/kg, respectively. The IC50 in assay [2] was found to be 0.015 µM.
Regarding `CCCN(CCC)Cc1cnc(-c2ncn3c2CN(C)C(=O)c2c-3ccc(F)c2Cl)o1` [C, 7-chloro-3-(5-dipropylaminomethyl-oxazol-2-yl)-8-fluoro-5-methyl-5,6-dihydro-4H-imidazo[1,5-a][1,4]benzodiazepin-6-one], the ED50 in assay [1] (setting [3]) was 0.3 mg/kg; in assay [1] (setting [4]), 0.3 mg/kg; in assay [1] (setting [5]) it was 0.5 mg/kg; in assay [1] (setting [6]), 0.7 mg/kg; in assay [1] (setting [7]) it was 1.6 mg/kg; in assay [1] (setting [8]) it was 2 mg/kg. The ED50 in assay [1] (setting [9]) is over 10 mg/kg; in assay [1] (setting [10]), at least 10 mg/kg. Further, the IC50 in assay [2] was 0.007 µM.
